According to patent publication US20140140988A1, “COMBINATION THERAPY OF AN AFUCOSYLATED CD20 ANTIBODY WITH A MDM2 INHIBITOR” (Roche Glycart AG, priority 2010, published 2014):

Tested on: human Z138 mantle cell lymphoma cell line
Assay: Tumor growth inhibition study in vivo, Z138 mantle cell lymphoma xenograft
Set-up: species or system SCID beige mice
Procedure: Cells were co-injected with Matrigel.
Experimental study protocol was reviewed and approved by local government. […] Continuous health monitoring was carried out on regular basis. Diet food (Provimi Kliba 3337) and water (acidified pH 2.5-3) were provided ad libitum.
Animals were controlled daily for clinical symptoms and detection of adverse effects.
The corresponding vehicle was administered on the same days.

| Molecule | tumor growth inhibition (day 35, single agent 75 mg/kg p.o. once daily, three times weekly over 18 days (FIG. 2)) [%] | tumor growth inhibition (day 35, single agent 150 mg/kg p.o. once daily, three times weekly over 18 days (FIG. 3)) [%] | tumor growth inhibition (day 35 after tumor cell inoculation, single agent 0.5 mg/kg i.p. q7d once weekly for 3 weeks, compared to the control group) [%] |
| --- | --- | --- | --- |
| CCOc1cc(C(C)(C)C)ccc1C1=N[C@@](C)(c2ccc(Cl)cc2)[C@@](C)(c2ccc(Cl)cc2)N1C(=O)N1CCN(CCCS(C)(=O)=O)CC1 [MDM2 inhibitor] | 35 | 78 | – |
| B-HH6-B-KV1 GE: afucosylated type II anti-CD20 antibody, humanized B-Ly1, glycoengineered; VH SEQ ID No.7, VL SEQ ID No. 20 | – | – | 59 |
